{
  "source": "patent US20050090518A1",
  "about": "(Nastech Pharmaceutical Company Inc., priority 2003, published 2005)",
  "origin": "cited, not measured here",
  "conditions": "intranasal administration",
  "data": [
    {"smiles": "CN1CCc2cccc3c2[C@H]1Cc1ccc(O)c(O)c1-3", "note": "[Apomorphine]", "values": [
      {"measurement": "abolition of \"off state\" events", "value": 95, "unit": "%"},
      {"measurement": "duration of efficacy", "value": "less than one"},
      {"measurement": "onset of action", "value": 10, "unit": "min"}
    ]}
  ]
}
